The source of these data is publication PMC5733478, “A Non-imaging High Throughput Approach to Chemical Library Screening at the Unmodified Adenosine-A3 Receptor in Living Cells” (Frontiers in Pharmacology, 2017).

SMILES strings stand for the structures. Counter-ions that a name gives are not always drawn.

The first assay concerns the target T1, human A3AR (Homo sapiens, UniProt P0DMS8).
T1 construct: expressed in transfected cells
T1 sequence (P0DMS8 1-318): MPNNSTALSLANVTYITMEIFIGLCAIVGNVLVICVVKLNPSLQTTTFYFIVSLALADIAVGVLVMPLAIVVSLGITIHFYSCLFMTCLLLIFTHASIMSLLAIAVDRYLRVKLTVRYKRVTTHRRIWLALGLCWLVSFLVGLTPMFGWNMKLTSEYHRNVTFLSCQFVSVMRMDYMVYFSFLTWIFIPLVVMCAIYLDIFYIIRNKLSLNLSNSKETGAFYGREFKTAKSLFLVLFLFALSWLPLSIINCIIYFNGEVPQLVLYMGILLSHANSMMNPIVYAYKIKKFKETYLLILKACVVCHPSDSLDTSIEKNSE
Description: LOPAC library primary screen: single concentration (10 μM) inhibition of 25 nM CA200645 binding, PHERAstar FS.
Conditions: not given
In the case of `CC(C)(C)NCC(O)c1ccc(O)c(CO)c1.CC(C)(C)NCC(O)c1ccc(O)c(CO)c1.O=S(=O)(O)O` (stereo not shown) [Albuterol hemisulfate], the “% 25 nM CA200645 binding” value was 97.4 ± 12.0%. Take `COc1cc2nc(N(C)CCCNC(=O)C3CCCO3)nc(N)c2cc1OC` (stereo not shown) [Alfuzosin hydrochloride]: the “% 25 nM CA200645 binding” value is recorded as 102.3 ± 4.9%. With `Oc1ncnc2[nH]ncc12` [Allopurinol], the “% 25 nM CA200645 binding” value is 99.8 ± 7.2%.

For the compound `CN(C)c1nc(N(C)C)nc(N(C)C)n1` [Altretamine], the “% 25 nM CA200645 binding” value stood at 99.1 ± 9.2%. On to `NC12CC3CC(CC(C3)C1)C2` [Amantadine hydrochloride], for which the “% 25 nM CA200645 binding” value worked out at 104.6 ± 3.5%. Take `NCCCNCCSP(=O)(O)O` [Amifostine]: the “% 25 nM CA200645 binding” value amounted to 94.6 ± 2.0%.

On to `N=C(N)NC(=O)c1nc(Cl)c(N)nc1N` [Amiloride hydrochloride], for which the “% 25 nM CA200645 binding” value was found to be 88.5 ± 23.0%. Turning to `CN1[C@@H]2CC[C@H]1C[C@@H](OC(c1ccccc1)c1ccccc1N)C2` (stereo partly shown) [Aminobenztropine], the “% 25 nM CA200645 binding” value was determined as 92.7 ± 5.2%. Take `NN=C(N)N.NN=C(N)N.O=S(=O)(O)O` [Aminoguanidine hemisulfate]: the “% 25 nM CA200645 binding” value came to 99.2 ± 8.4%.

`Cl.N=C(N)NN` [Aminoguanidine hydrochloride]: the “% 25 nM CA200645 binding” value is 100.9 ± 6.1%.

With `Cn1c(=O)c2[nH]cnc2n(C)c1=O.Cn1c(=O)c2[nH]cnc2n(C)c1=O.NCCN` [Aminophylline ethylenediamine], the “% 25 nM CA200645 binding” value amounted to 89.2 ± 8.4%. Regarding `Nc1nc(N)c2nc(CNc3ccc(C(=O)N[C@@H](CCC(=O)O)C(=O)O)cc3)cnc2n1` [Aminopterin], the “% 25 nM CA200645 binding” value is 91.1 ± 3.5%. In the case of `CCCCc1oc2ccccc2c1C(=O)c1cc(I)c(OCCN(CC)CC)c(I)c1` [Amiodarone hydrochloride], the “% 25 nM CA200645 binding” value is 91.5 ± 10.5%. Consider `CCN1CCCC1CNC(=O)c1cc(S(=O)(=O)CC)c(N)cc1OC` (stereo not shown) [Amisulpride], for which the “% 25 nM CA200645 binding” value was 98.0 ± 5.3%. On the same count and under the same terms, as for `CN(C)CCC=C1c2ccccc2CCc2ccccc21` [Amitriptyline hydrochloride], the figure is 83.6 ± 19.8%.

Consider `Clc1ccc2c(c1)C(N1CCNCC1)=Nc1ccccc1O2` [Amoxapine], for which the “% 25 nM CA200645 binding” value is recorded as 102.6 ± 1.7%. For `COc1cc(NS(C)(=O)=O)ccc1Nc1c2ccccc2nc2ccccc12` [Amsacrine hydrochloride], the “% 25 nM CA200645 binding” value came to 99.8 ± 8.3%. On the same count and under the same terms, as for `N=c1ccn2c(n1)O[C@H]1[C@H](O)[C@@H](CO)O[C@H]12` [Ancitabine hydrochloride], the figure is 106.9 ± 5.2%; as for `COc1ccc(C(=O)N2CCCC2=O)cc1` [Aniracetam], 95.9 ± 3.1%. Regarding `CCCC(CCC)C(=O)O[C@H]1C[C@H]2CC[C@@H](C1)[N+]2(C)C` [Anisotropine methyl bromide], the “% 25 nM CA200645 binding” value was determined as 97.1 ± 12.3%. Take `Cl.c1ccc(CN(CC2=NCCN2)c2ccccc2)cc1` [Antozoline hydrochloride]: the “% 25 nM CA200645 binding” value is on record as 97.0 ± 6.0%. On to `O=c1cc(-c2ccc(O)cc2)oc2cc(O)cc(O)c12` [Apigenin], for which the “% 25 nM CA200645 binding” value worked out at 41.8 ± 13.4%.

On to `CN1CCc2cccc3c2[C@H]1Cc1ccc(O)c(O)c1-3` [Apomorphine hydrochloride hemihydrate], for which the “% 25 nM CA200645 binding” value worked out at 95.0 ± 6.4%. Regarding `CCN(CC)CCCN(c1ccccc1)C1Cc2ccccc2C1` [Aprindine hydrochloride], the “% 25 nM CA200645 binding” value was found to be 96.8 ± 13.3%. Same read-out and setting: as for `Nc1nc2c(ncn2[C@@H]2O[C@H](CO)[C@@H](O)[C@@H]2O)c(=O)[nH]1.O` [Ara-G hydrate], the figure is 96.8 ± 6.9%; as for `C#CCOC(=O)C1=CCCN(C)C1` [Arecaidine propargyl ester hydrobromide], 96.0 ± 12.2%; as for `COC(=O)C1=CCCN(C)C1` [Arecoline hydrobromide], 81.8 ± 27.0%.

For the compound `CC1=C(/C=C/C(C)=C/C=C/C(C)=C/C=C/C=C(C)/C=C/C=C(C)/C=C/C2=C(C)C(=O)[C@@H](O)CC2(C)C)C(C)(C)C[C@H](O)C1=O` [Astaxanthin], the “% 25 nM CA200645 binding” value was 96.8 ± 4.6%. As for `CC(C)c1c(C(=O)Nc2ccccc2)c(-c2ccccc2)c(-c2ccc(F)cc2)n1CC[C@@H](O)C[C@@H](O)CC(=O)O` [Atorvastatin calcium salt trihydrate], the “% 25 nM CA200645 binding” value worked out at 97.7 ± 2.2%. Still for that read-out and setting: as for `CC(=O)OC[C@H]1O[C@@H]([S-])[C@H](OC(C)=O)[C@@H](OC(C)=O)[C@@H]1OC(C)=O.CCP(CC)CC.[Au+]` [Auranofin], the figure is 82.1 ± 31.0%; as for `O=C(O)C1=CC(=C(c2ccc(O)c(C(=O)O)c2)c2ccc(O)c(C(=O)O)c2)C=CC1=O` [Aurintricarboxylic acid], 93.7 ± 12.0%; as for `CCCCCCCCCCCCCCCCCCN(CCCCCCCCCCCCCCCCCC)CCCN(CCO)CCO` [Avridine], 100.2 ± 21.9%. In the case of `Cn1cnc([N+](=O)[O-])c1Sc1ncnc2nc[nH]c12` [Azathioprine], the “% 25 nM CA200645 binding” value was 93.9 ± 5.0%. `O=C(O)CCCCCCCC(=O)O` [Azelaic acid]: the “% 25 nM CA200645 binding” value is 91.8 ± 5.2%. Regarding `CC[C@H]1OC(=O)[C@H](C)[C@@H](O[C@H]2C[C@@](C)(OC)[C@@H](O)[C@H](C)O2)[C@H](C)[C@@H](O[C@@H]2O[C@H](C)C[C@H](N(C)C)[C@H]2O)[C@](C)(O)C[C@@H](C)CN(C)[C@H](C)[C@@H](O)[C@]1(C)O` [Azithromycin dihydrate], the “% 25 nM CA200645 binding” value came out at 98.9 ± 6.9%. In the case of `CCN1CCc2nc(N)oc2CC1.Cl.Cl` [B-HT 933 dihydrochloride], the “% 25 nM CA200645 binding” value worked out at 90.5 ± 9.0%. Turning to `COc1ccc(-c2cc3nccn3c(Nc3ncccc3C(N)=O)n2)cc1OC.Cl.O` [BAY 61-3606 hydrochloride hydrate], the “% 25 nM CA200645 binding” value amounted to 83.8 ± 10.8%. As for `OCC(CO)(CBr)CBr` [BBMP], the “% 25 nM CA200645 binding” value was found to be 93.9 ± 9.9%. In the case of `Nc1ccc(-c2ccc3ccccc3n2)cc1` [BF-170 hydrochloride], the “% 25 nM CA200645 binding” value was 78.6 ± 20.5%. For `CC(=O)O[C@H]1Cc2ccccc2N(C(N)=O)c2ccccc21` [BIA 2-093], the “% 25 nM CA200645 binding” value is recorded as 110.6 ± 5.0%. Turning to `COc1cc2nc(N3CCCN(C)CC3)nc(NC3CCN(Cc4ccccc4)CC3)c2cc1OC` [BIX 01294 trihydrochloride hydrate], the “% 25 nM CA200645 binding” value was found to be 97.9 ± 21.2%. Turning to `COc1ccccc1N1CCN(CCN2C(=O)CC3(CCCC3)CC2=O)CC1.Cl.Cl` [BMY 7378 dihydrochloride], the “% 25 nM CA200645 binding” value was determined as 82.8 ± 23.0%. On to `O=C(O)/C=C\C(=O)O.O=C1/C(=C/c2ccccc2)C[C@@]2(O)[C@H]3Cc4ccc(O)c5c4[C@@]2(CCN3CC2CC2)[C@H]1O5` [BNTX maleate salt hydrate], for which the “% 25 nM CA200645 binding” value is 109.9 ± 5.7%. As to `C[C@H](Cc1ccc(OCC(=O)[O-])cc1)NC[C@H](O)c1cccc(Cl)c1.[Na+]` [BRL 37344 sodium], the “% 25 nM CA200645 binding” value was determined as 98.2 ± 9.4%. With `Cc1ccc([N+](=O)[O-])cc1S(=O)(=O)N(C)C` [BRL 50481], the “% 25 nM CA200645 binding” value is 82.8 ± 17.4%. `Cl.O=C(Cc1ccc(Cl)c(Cl)c1)N1CCCCC1CN1CCCC1` (stereo not shown) [BRL 52537 hydrochloride]: the “% 25 nM CA200645 binding” value was 112.4 ± 4.2%. For `CN1CCC(c2c[nH]c3ccc(O)cc23)CC1.O=C(O)/C=C\C(=O)O` [BRL 54443 maleate], the “% 25 nM CA200645 binding” value was 102.8 ± 6.2%.

In the case of `Cl.c1ccc2sc(C3(N4CCCCC4)CCCCC3)cc2c1` [BTCP hydrochloride], the “% 25 nM CA200645 binding” value is 94.3 ± 14.0%. For the compound `N#Cc1cc([N+](=O)[O-])c2sc(C(N)=O)[n+]([O-])c2c1` [BTO-1], the “% 25 nM CA200645 binding” value is reported as 99.9 ± 23.7%.

Regarding `Cl.c1ccc2nc(C3=NCCN3)ccc2c1` [BU224 hydrochloride], the “% 25 nM CA200645 binding” value was found to be 100.8 ± 7.2%.

`C=CC[N+](C)(C)c1ccc(CCC(=O)CCc2ccc([N+](C)(C)CC=C)cc2)cc1.[Br-].[Br-]` [BW 284c51]: the “% 25 nM CA200645 binding” value stood at 100.9 ± 3.8%.

As for `CC(N)Cc1c[nH]c2ccc(OCc3cccs3)cc12` (stereo not shown) [BW 723C86], the “% 25 nM CA200645 binding” value is listed as 102.2 ± 11.4%. As to `CC(/C=C/c1cccc(Oc2ccc(F)cc2)c1)N(O)C(N)=O` (stereo not shown) [BWB70C], the “% 25 nM CA200645 binding” value is 92.4 ± 13.0%. Regarding `Cc1ccc(S(=O)(=O)/C=C/C#N)cc1` [Bay 11-7082], the “% 25 nM CA200645 binding” value amounted to 104.6 ± 21.3%. Regarding `CC(C)(C)c1ccc(S(=O)(=O)/C=C/C#N)cc1` [Bay 11-7085], the “% 25 nM CA200645 binding” value is listed as 95.2 ± 7.7%.

With `C[C@H]1C[C@H]2[C@@H]3CCC4=CC(=O)C=C[C@]4(C)[C@@]3(Cl)[C@@H](O)C[C@]2(C)[C@@]1(O)C(=O)CO` [Beclomethasone], the “% 25 nM CA200645 binding” value turned out to be 93.7 ± 1.6%.

The assay is the same for the next values; noted with them: % of control wells (1% DMSO and 25 nM CA200645); compounds at 10 µM; whole live cells expressing the A3AR; mean ± SD, three experiments in duplicate.
Consider `CO[C@H]1O[C@@H]2O[C@@]3(C)CC[C@H]4[C@H](C)CC[C@@H]([C@H]1C)[C@@]24OO3` [Artemether], for which the “% 25 nM CA200645 binding” value worked out at 99.4 ± 9.9%.

The same assay, now with this note: compounds tested at 10 µM; % of control wells (1% DMSO and 25 nM CA200645); whole live cells expressing the A3AR; mean ± SD, three experiments in duplicate.
On to `CCNC(=O)N1CCN(CCCC(c2ccc(F)cc2)c2ccc(F)cc2)CC1` [Amperozide hydrochloride], for which the “% 25 nM CA200645 binding” value came to 92.9 ± 0.6%.

In the case of `NC(N)=NCCCCN=C(N)N` [Arcaine sulfate], the “% 25 nM CA200645 binding” value turned out to be 96.1 ± 6.4%.

In the case of `C[N+]1(C)[C@@H]2CC[C@H]1C[C@@H](OC(=O)C(CO)c1ccccc1)C2` (stereo partly shown) [Atropine methyl bromide], the “% 25 nM CA200645 binding” value is on record as 102.2 ± 7.3%.

Consider `C[N+]1(C)[C@@H]2CC[C@H]1C[C@@H](OC(=O)C(CO)c1ccccc1)C2` (stereo partly shown) [Atropine methyl nitrate], for which the “% 25 nM CA200645 binding” value turned out to be 90.8 ± 8.8%.
